The structures appear in SMILES notation. Entries after “also recorded” stand apart in the source; their conditions may differ.

These results are taken from US20220047687A1, “CHEMICAL SCALPEL” (FUNDACIÓN INSTITUTO DE INVESTIGACIÓN SANITARIA FUNDACIÓN …, priority 2019, published 2022).

Series [1] concerns abdominal organs and peritoneum. Briefly: Survival and necropsy of healthy rats after peritoneal washing (groups A, B). From the text:
During this phase, a series of survival experiments were established with various work groups and subgroups to learn about the co-adjuvant or enhancing role of collagenase in the treatment of peritoneal tumors with chemotherapeutic agents such as mitomycin C:
Each group initially consisted of 6 rats (2×3). In the initial design, 3 animals were sacrificed after 15 days and the rest were left until the conditions of the animals required them to be sacrificed (subcutaneous tumor growth >0.5 cm in diameter) or a maximum of 2 months.

Series [2] concerns peritoneal carcinomatosis (DHD cells). Briefly: Survival and necropsy of rats with carcinomatosis after peritoneal washing (groups D, E, F). It counts as in vivo, rat. The settings on record: for Observations (necropsy): group E, Mito 5 mg; for outcome of group E: mitomycin 5 mg/animal, large amount of analgesia. As to the method:
(§1) The procedure was performed 2 times in the TCQ group, the first time with collagenase and after 2 minutes peritoneal washing with mitomycin C at the different concentrations to be tested was repeated. […] Blood was also collected from all the animals before sacrificing them, the blood was processed within the hour following its extraction to obtain plasma and to analyze, on one hand, the existence of the mutated KRAS oncogene (mutation in codon 12 of exon 1 expressed by DHD cells), and on the other hand the existence of collagenase traces or residues in blood after the peritoneal washes. A digital PCR was used for the KRAS oncogene localization study. For the collagenase trace study, the anonymized samples were sent to Lyposmol laboratories for the performance of specific anti-MMP-1 and anti-MMP-2 ELISAS.
Each group initially consisted of 6 rats (2×3).

The next series concerns mutated KRAS oncogene. As to the kind of experiment: Digital PCR of KRAS in plasma. It counts as in vivo, rat. Particulars: for Mutated KRAS event no.: plasma. As to the method:
as §1
To analyze the presence of mutated KRAS in the blood of the different groups by means of digital PCR, DNA was extracted from at least 2 ml of plasma/group by means of the QlAamp Circulating Nucleic Acid kit according to the manufacturer's data and the results were those listed in Table 4.

Regarding `CO[C@@]12[C@H](COC(N)=O)C3=C(C(=O)C(C)=C(N)C3=O)N1C[C@@H]1N[C@@H]12` [Mitomycin C, mitomycin C], the “necropsies of group B1” value in series [1] (5 mg of mitomycin) is “many irritated and bloody adhesions, and thin organ walls and vessels”. In addition, in series [1] (group B, high dose 5 mg/animal), the clinical condition entry is “always lethargic and exhibit very little activity”. Further, in series [1] (group B, high dose 5 mg/animal, despite continuous analgesia), the survival time was at most 2 weeks. The “Observations (necropsy)” value in series [1] (group B-1, healthy rats, 5 mg, 1 week, 2 animals, listed as Mito) is “Significant weight loss. Viscera affected”; in series [1] (group B-1, healthy rats, 5 mg, 1 week, 2 animals, listed as mitomycin) it was “all the abdominal organs are in a relaxed and retracted state (with kidneys that appear necrotic and liver that appears collapsed), the omentum can be ruptured upon contact, and the large intestine obstructed”; in series [1] (group B-1, healthy rats, 5 mg, 5 days, 1 animal) it was “intestinal puncture”; in series [1] (group B-2, healthy rats, 0.1 mg, 1 week, 1 animal), “Organs with thinning and bloody walls; also recorded: Many adhesions”; in series [1] (group B-2, healthy rats, 0.1 mg, 2 months, 2 animals, listed as Mito), “Greenish liquid in abdomen, peritonitis; also recorded: high degree of adhesions”; in series [1] (group B-2, healthy rats, 0.1 mg, 2 months, 2 animals, listed as mitomycin), “the intestine and an omentum are hematic”. For the same compound, the “Observations (necropsy)” value in series [1] (group B-2, healthy rats, 0.1 mg, 24 h, 2 animals) is given as “Evisceration”; in series [2] (1 week, 1 animal), “Endpoint criterion”; in series [2] (2 weeks, 2 animals), “Endpoint criterion”; in series [2] (72 h, 3 animals), “Endpoint criterion”. Besides, the results for the “outcome of group E” value in series [2] and in series [2] (listed as mitomycin) were “all the animals had to be sacrificed due to endpoint criterion” and “Half of the animals were found dead the first night after surgery”, respectively. Moreover, the “mutated KRAS in the plasma, assessment” value in the series with mutated KRAS oncogene (group E (DHD + mitomycin C 5 mg/animal), only such group among the treatments) is given as “positive mutated KRAS in the plasma”. In addition, the “Mutated KRAS event no.” value with mutated KRAS oncogene (group B (healthy rats, mitomycin)) turned out to be 0; in the series with mutated KRAS oncogene (group E (DHD + Mito 5 mg/animal)) it was 524.
